Measured values taken from patent US20250101041A1, “POSITIVE ALLOSTERIC MODULATORS OF THE MUSCARINIC ACETYLCHOLINE RECEPTOR M4” (Vanderbilt University, priority 2022, published 2025).

Target: T1, human mAChR M4 (Homo sapiens, UniProt P08173)
T1 construct: expressed in transfected cells; host or cells: CHO-K1 (American Type Culture Collection), stably expressing hM4 and Gqi5
T1 sequence (P08173 1-479): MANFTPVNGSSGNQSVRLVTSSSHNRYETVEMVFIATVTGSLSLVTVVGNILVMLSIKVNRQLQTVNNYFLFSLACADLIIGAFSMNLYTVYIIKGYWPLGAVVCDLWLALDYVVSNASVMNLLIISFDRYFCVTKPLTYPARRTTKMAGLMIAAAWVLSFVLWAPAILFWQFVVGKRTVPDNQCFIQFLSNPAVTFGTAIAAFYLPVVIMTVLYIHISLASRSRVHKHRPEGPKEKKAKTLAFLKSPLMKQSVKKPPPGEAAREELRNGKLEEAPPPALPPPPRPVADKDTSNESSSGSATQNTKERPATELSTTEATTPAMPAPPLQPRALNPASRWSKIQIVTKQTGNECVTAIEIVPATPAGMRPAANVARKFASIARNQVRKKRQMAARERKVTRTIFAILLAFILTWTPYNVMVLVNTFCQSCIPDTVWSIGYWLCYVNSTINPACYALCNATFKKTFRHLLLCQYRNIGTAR
Assay: mAChR M4 cell-based functional assay: calcium mobilization (Fluo-4, FDSS), potentiation of EC20 acetylcholine response in hM4-Gqi5 CHO-K1 cells
Conditions: human M4; for Emax at 30 µM: CHO-K1, % ACh maximum at 30 μM; for EC50: potentiation of EC20 acetylcholine response, calcium mobilization
Method in brief: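 CHO-K1 cells stably co-expressing human M4 and chimeric Gqi5, loaded with Fluo-4 AM (50 min, 37 °C). Compounds in 11-point 1:3 series added first; EC20 acetylcholine added at 144 s and again at 230 s. Calcium read on FDSS at 1 Hz; EC50 and Emax from four-parameter logistic fit of potentiated EC20 response.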

Compound | Emax at 30 µM | EC50
Cc1cc(C(F)F)ncc1-c1cnc2c(c1)CN(c1nn3c(=O)ccnc3cc1C)CC2 [Compound 1-375, 7-(3-(6-(difluoromethyl)-4-methylpyridin-3-yl)-7,8-dihydro-1,6-naphthyridin-6(5H)-yl)-8-methyl-4H-pyrimido [1,2-b]pyridazin-4-one] | 75% | 273 nM
Cc1cc2nccc(=O)n2nc1N1CCc2ncc(Cc3cccnc3)cc2C1 [Compound 1-378, 8-methyl-7-(3-(pyridin-3-ylmethyl)-7,8-dihydro-1,6-naphthyridin-6(5H)-yl)-4H-pyrimido[1,2-b]pyridazin-4-one] | 83% | 898 nM
COCc1cc(=O)n2nc(N3CCc4ncc(-c5cnc(Cl)cc5C)cc4C3)c(C)c(C)c2n1 [Compound 1-379, 7-(3-(6-chloro-4-methylpyridin-3-yl)-7,8-dihydro-1,6-naphthyridin-6(5H)-yl)-2-(methoxymethyl)-8,9-dimethyl-4H-pyrimido[1,2-b]pyridazin-4-one] | 109% | 357 nM
COCc1cc(=O)n2nc(N3CCc4ncc(-c5cnn6c5COCC6)cc4C3)c(C)c(C)c2n1 [Compound 1-380, 7-(3-(6,7-dihydro-4H-pyrazolo[5,1-c][1,4]oxazin-3-yl)-7,8-dihydro-1,6-naphthyridin-6(5H)-yl)-2-(methoxymethyl)-8,9-dimethyl-4H-pyrimido[1,2-b] pyridazin-4-one] | 95% | 205 nM
COCc1cc(=O)n2nc(N3CCc4ncc(-c5ncc(C)cc5C)cc4C3)c(C)cc2n1 [Compound 1-381, 7-(3-(3,5-dimethylpyridin-2-yl)-7,8-dihydro-1,6-naphthyridin-6(5H)-yl)-2-(methoxymethyl)-8-methyl-4H-pyrimido[1,2-b] pyridazin-4-one] | 83% | 969 nM
COCc1cc(=O)n2nc(N3CCc4ncc(-c5ncc(F)cc5F)cc4C3)c(C)cc2n1 [Compound 1-382, 7-(3-(3,5-difluoropyridin-2-yl)-7,8-dihydro-1,6-naphthyridin-6(5H)-yl)-2-(methoxymethyl)-8-methyl-4H-pyrimido[1,2-b] pyridazin-4-one] | 79% | 467 nM
COCc1cc(=O)n2nc(N3CCc4ncc(-c5cc(F)ccn5)cc4C3)c(C)cc2n1 [Compound 1-383, 7-(3-(4-fluoropyridin-2-yl)-7,8-dihydro-1,6-naphthyridin-6(5H)-yl)-2-(methoxymethyl)-8-methyl-4H-pyrimido[1,2-b] pyridazin-4-one] | 83% | 647 nM
COCc1cc(=O)n2nc(N3CCc4ncc(-c5cnccc5OC)cc4C3)c(C)cc2n1 [Compound 1-384, 2-(methoxymethyl)-7-(3-(4-methoxypyridin-3-yl)-7,8-dihydro-1,6-naphthyridin-6(5H)-yl)-8-methyl-4H-pyrimido [1,2-b]pyridazin-4-one] | 83% | 1030 nM
COc1cc(C)c(-c2cnc3c(c2)CN(c2nn4c(=O)ccnc4cc2C)CC3)cn1 [Compound 1-387, 7-(3-(6-methoxy-4-methylpyridin-3-yl)-7,8-dihydro-1,6-naphthyridin-6(5H)-yl)-8-methyl-4H-pyrimido[1,2-b] pyridazin-4-one] | 92% | 46 nM
CC(=O)N1CC=C(c2cnc3c(c2)CN(c2nn4c(=O)ccnc4cc2C)CC3)CC1 [Compound 1-388, 7-(3-(1-acetyl-1,2,3,6-tetrahydropyridin-4-yl)-7,8-dihydro-1,6-naphthyridin-6(5H)-yl)-8-methyl-4H-pyrimido[1,2-b]pyridazin-4-one] | 61% | 1280 nM
Cc1nc(-c2cnc3c(c2)CN(c2nn4c(=O)ccnc4cc2C)CC3)cs1 [Compound 1-389, 8-methyl-7-(3-(2-methylthiazol-4-yl)-7,8-dihydro-1,6-naphthyridin-6(5H)-yl)-4H-pyrimido[1,2-b] pyridazin-4-one] | 63% | 271 nM
Cc1cc(-c2cnc3c(c2)CN(c2nn4c(=O)ccnc4cc2C)CC3)n(C)n1 [Compound 1-390, 7-(3-(1,3-dimethyl-1H-pyrazol-5-yl)-7,8-dihydro-1,6-naphthyridin-6(5H)-yl)-8-methyl-4H-pyrimido[1,2-b]pyridazin-4-one] | 98% | 486 nM
Cc1cc2nccc(=O)n2nc1N1CCc2ncc(-c3ncc(C)n3C)cc2C1 [Compound 1-391, 7-(3-(1,5-dimethyl-1H-imidazol-2-yl)-7,8-dihydro-1,6-naphthyridin-6(5H)-yl)-8-methyl-4H-pyrimido[1,2-b]pyridazin-4-one] | 49% | 
Cc1cc2nccc(=O)n2nc1N1CCc2ncc(-c3cncn3C)cc2C1 [Compound 1-392, 8-methyl-7-(3-(1-methyl-1H-imidazol-5-yl)-7,8-dihydro-1,6-naphthyridin-6(5H)-yl)-4H-pyrimido[1,2-b] pyridazin-4-one] | 105% | 259 nM
Cc1cc2nccc(=O)n2nc1N1CCc2ncc(-c3ncsc3C)cc2C1 [Compound 1-393, 8-methyl-7-(3-(5-methylthiazol-4-yl)-7,8-dihydro-1,6-naphthyridin-6(5H)-yl)-4H-pyrimido[1,2-b]pyridazin-4-one] | 83% | 1050 nM
Cc1cscc1-c1cnc2c(c1)CN(c1nn3c(=O)ccnc3cc1C)CC2 [Compound 1-394, 8-methyl-7-(3-(4-methylthiophen-3-yl)-7,8-dihydro-1,6-naphthyridin-6(5H)-yl)-4H-pyrimido[1,2-b]pyridazin-4-one] | 86% | 74 nM
Cc1cc2nccc(=O)n2nc1N1CCc2ncc(-c3scnc3C)cc2C1 [Compound 1-395, 8-methyl-7-(3-(4-methylthiazol-5-yl)-7,8-dihydro-1,6-naphthyridin-6(5H)-yl)-4H-pyrimido[1,2-b]pyridazin-4-one] | 90% | 138 nM
Cc1cc2nccc(=O)n2nc1N1CCc2ncc(-c3ccnn3C(C)C)cc2C1 [Compound 1-396, 7-(3-(1-isopropyl-1H-pyrazol-5-yl)-7,8-dihydro-1,6-naphthyridin-6(5H)-yl)-8-methyl-4H-pyrimido[1,2-b]pyridazin-4-one] | 60% | 597 nM
Cc1ncc(-c2cnc3c(c2)CN(c2nn4c(=O)ccnc4cc2C)CC3)o1 [Compound 1-397, 8-methyl-7-(3-(2-methyloxazol-5-yl)-7,8-dihydro-1,6-naphthyridin-6(5H)-yl)-4H-pyrimido[1,2-b]pyridazin-4-one] | 87% | 1080 nM
Cc1cc(F)ncc1-c1cnc2c(c1)CN(c1nn3c(=O)ccnc3cc1C)CC2 [Compound 1-398, 7-(3-(6-fluoro-4-methylpyridin-3-yl)-7,8-dihydro-1,6-naphthyridin-6(5H)-yl)-8-methyl-4H-pyrimido[1,2-b]pyridazin-4-one] | 93% | 169 nM
Cc1cc2nccc(=O)n2nc1N1CCc2ncc(-c3cncc(F)c3C)cc2C1 [Compound 1-399, 7-(3-(5-fluoro-4-methylpyridin-3-yl)-7,8-dihydro-1,6-naphthyridin-6(5H)-yl)-8-methyl-4H-pyrimido[1,2-b]pyridazin-4-one] | 63% | 130 nM
Cc1cc(C(F)(F)F)ncc1-c1cnc2c(c1)CN(c1nn3c(=O)ccnc3cc1C)CC2 [Compound 1-400, 8-methyl-7-(3-(4-methyl-6-(trifluoromethyl)pyridin-3-yl)-7,8-dihydro-1,6-naphthyridin-6(5H)-yl)-4H-pyrimido[1,2-b] pyridazin-4-one] | 95% | 433 nM
Cc1cc2nccc(=O)n2nc1N1CCc2ncc(-c3c(C)ccnc3C)cc2C1 [Compound 1-401, 7-(3-(2,4-dimethylpyridin-3-yl)-7,8-dihydro-1,6-naphthyridin-6(5H)-yl)-8-methyl-4H-pyrimido [1,2-b]pyridazin-4-one] | 39% | 
Cc1ccncc1-c1cnc2c(c1)CN(c1nn3c(=O)ccnc3cc1C)CC2 [Compound 1-403, 8-methyl-7-(3-(4-methylpyridin-3-yl)-7,8-dihydro-1,6-naphthyridin-6(5H)-yl)-4H-pyrimido[1,2-b] pyridazin-4-one] | 86% | 112 nM
Cc1cc(N)ncc1-c1cnc2c(c1)CN(c1nn3c(=O)ccnc3cc1C)CC2 [Compound 1-404, 7-(3-(6-amino-4-methylpyridin-3-yl)-7,8-dihydro-1,6-naphthyridin-6(5H)-yl)-8-methyl-4H-pyrimido[1,2-b]pyridazin-4-one] | 97% | 165 nM
Cc1cc(C)c(-c2cnc3c(c2)CN(c2nn4c(=O)ccnc4cc2C)CC3)cn1 [Compound 1-405, 7-(3-(4,6-dimethylpyridin-3-yl)-7,8-dihydro-1,6-naphthyridin-6(5H)-yl)-8-methyl-4H-pyrimido [1,2-b]pyridazin-4-one] | 61% | 259 nM
Cc1cc(C(=O)O)ncc1-c1cnc2c(c1)CN(c1nn3c(=O)ccnc3cc1C)CC2 [Compound 1-406, 4-methyl-5-(6-(8-methyl-4-oxo-4H-pyrimido[1,2-b]pyridazin-7-yl)-5,6,7,8-tetrahydro-1,6-naphthyridin-3-yl)picolinic acid] | 86% | 3970 nM
